This note sets out measurements from patent US20250388573A1, “FUSED BICYCLIC EGFR INHIBITORS AND METHODS OF USE THEREOF” (Dana-Farber Cancer Institute, Inc., priority 2022, published 2025).

Test [1] has as its system EGFR mutant L858R Ba/F3 cells. As to the kind of experiment: Ba/F3 cell proliferation (Cell Titer Glo), L858R. The format is cell-based, murine. The following applies: Mus musculus, BaF3, 72 hours, read-out: LR BaF3 cell IC50. An excerpt: (§1) The EGFR mutant L858R and L858R/T790M Ba/F3 cells have been previously described (Zhou, W., et al. Nature 462, 2009, 1070-1074). All cell lines were maintained in RPMI 1640 (Cellgro; Mediatech Inc., Herndon, CA) supplemented with 10% FBS, 100 units/mL penicillin, 100 units/mL streptomycin. The EGFR 1941R mutation was introduced via site directed mutagenesis using the Quick Change Site-Directed Mutagenesis kit (Stratagene; La Jolla, CA) according to the manufacturer's instructions. All constructs were confirmed by DNA sequencing. The constructs were shuttled into the retroviral vector JP1540 using the Cre-recombination system (Agilent Technologies, Santa Clara, CA). Ba/F3 cells were then infected with retrovirus per standard protocols, as described previously (Zhou, et al, Nature 2009). Stable clones were obtained by selection in puromycin (2 μg/ml).
(§2) Growth and inhibition of growth was assessed by the Cell Titer Glo assay (Promega, Madison, WI) and was performed according to the manufacturer's instructions. The Cell Titer Glo assay is a luminescence-based method used to determine the number of viable cells based on quantitation of the ATP present, which is directly proportional to the amount of metabolically active cells present. Ba/F3 cells of different EGFR genotypes were exposed to the compounds disclosed herein for 72 hours and the number of cells used per experiment was determined empirically as has been previously established (Zhou, et al., Nature 2009). All experimental points were set up in triplicates in 384-well plates and all experiments were repeated at least three times. […] The curves were fitted using a non-linear regression model with a sigmoidal dose response.
(Cellular ATP, detected with luciferase, serves as a proxy for viable cell number.)

Test [2] concerns EGFR mutant L858R/T790M Ba/F3 cells. As to the kind of experiment: Ba/F3 cell proliferation (Cell Titer Glo), L858R/T790M. The format is cell-based, murine. The following applies: Mus musculus, BaF3, 72 hours, read-out: LRTM BaF3 cell IC50.
Excerpt: as §1, §2

In test [3] the target is EGFR L858R (Homo sapiens (Human), UniProt P00533, L858R). As to the kind of experiment: HTRF-based EGFR biochemical assay, L858R. The following applies: L858R 0.1 nM enzyme, 100 μM ATP; read-out: LR enzyme IC50. Here is the method:
(§3) EGFR biochemical activity measurements were carried out using the homogeneous time-resolved fluorescence (HTRF) assay (Cisbio). Inhibitors and DMSO normalizations were first dispensed to empty black low-volume 384-well plates (Corning) with D300 digital liquid dispenser (HP). All reactions were carried out at room temperature and solutions were added to plates with a Multidrop Combi Reagent Dispenser (ThermoFisher). The reaction mixture (10 µL final volume) contained 1 μM tyrosine kinase peptide-biotin substrate and mutant EGFR in a reaction buffer (50 mM HEPES pH 7.0, 5 mM MgCl2, 1 mM MnCl2, 0.01% BSA, 2 mM TCEP, 0.1 mM NaVO4). Enzyme concentrations were adjusted to accommodate varying kinase activities (L858R 0.1 nM, L858R/T790M 0.02 nM). Enzyme reaction solution (2× concentrations, 5 μL) was added to 384-well plates containing compounds and incubated for 30 mins. Enzyme reactions were initiated with the addition of 5 μL of ATP to a final concentration of 100 μM and reacted for 20 mins. Reactions were quenched with the addition of 10 μL of phospho-tyrosine antibody-Europium (III) cryptate (1-to-180 volume ratio) and Streptavidin-XL665 (46.7 nM) in EDTA-containing detection buffer, then incubated at room temperature for 1 hour, and read with a PHERAstar plate reader (excitation=337 nm, emission=620 nm and 665 nm). IC50 values were determined by inhibition curves (11-point curves from 1.0 μM to 0.130 nM or 23-point curves from 1.0 μM to 0.130 μM) in triplicate with non-linear least squares fit in GraphPad Prism 7.0d.

Test [4] has as its target EGFR L858R/T790M (Homo sapiens (Human), UniProt P00533, L858R/T790M). As to the kind of experiment: HTRF-based EGFR biochemical assay, L858R/T790M. The following applies: L858R/T790M 0.02 nM enzyme, 100 μM ATP; read-out: LRTM enzyme IC50. Here is the method:
as §3
For orientation: Time-resolved FRET reads energy transfer from a long-lived donor to a nearby acceptor.

EGFR L858R/T790M, sequence (P00533 25-1210 T790M/L858R): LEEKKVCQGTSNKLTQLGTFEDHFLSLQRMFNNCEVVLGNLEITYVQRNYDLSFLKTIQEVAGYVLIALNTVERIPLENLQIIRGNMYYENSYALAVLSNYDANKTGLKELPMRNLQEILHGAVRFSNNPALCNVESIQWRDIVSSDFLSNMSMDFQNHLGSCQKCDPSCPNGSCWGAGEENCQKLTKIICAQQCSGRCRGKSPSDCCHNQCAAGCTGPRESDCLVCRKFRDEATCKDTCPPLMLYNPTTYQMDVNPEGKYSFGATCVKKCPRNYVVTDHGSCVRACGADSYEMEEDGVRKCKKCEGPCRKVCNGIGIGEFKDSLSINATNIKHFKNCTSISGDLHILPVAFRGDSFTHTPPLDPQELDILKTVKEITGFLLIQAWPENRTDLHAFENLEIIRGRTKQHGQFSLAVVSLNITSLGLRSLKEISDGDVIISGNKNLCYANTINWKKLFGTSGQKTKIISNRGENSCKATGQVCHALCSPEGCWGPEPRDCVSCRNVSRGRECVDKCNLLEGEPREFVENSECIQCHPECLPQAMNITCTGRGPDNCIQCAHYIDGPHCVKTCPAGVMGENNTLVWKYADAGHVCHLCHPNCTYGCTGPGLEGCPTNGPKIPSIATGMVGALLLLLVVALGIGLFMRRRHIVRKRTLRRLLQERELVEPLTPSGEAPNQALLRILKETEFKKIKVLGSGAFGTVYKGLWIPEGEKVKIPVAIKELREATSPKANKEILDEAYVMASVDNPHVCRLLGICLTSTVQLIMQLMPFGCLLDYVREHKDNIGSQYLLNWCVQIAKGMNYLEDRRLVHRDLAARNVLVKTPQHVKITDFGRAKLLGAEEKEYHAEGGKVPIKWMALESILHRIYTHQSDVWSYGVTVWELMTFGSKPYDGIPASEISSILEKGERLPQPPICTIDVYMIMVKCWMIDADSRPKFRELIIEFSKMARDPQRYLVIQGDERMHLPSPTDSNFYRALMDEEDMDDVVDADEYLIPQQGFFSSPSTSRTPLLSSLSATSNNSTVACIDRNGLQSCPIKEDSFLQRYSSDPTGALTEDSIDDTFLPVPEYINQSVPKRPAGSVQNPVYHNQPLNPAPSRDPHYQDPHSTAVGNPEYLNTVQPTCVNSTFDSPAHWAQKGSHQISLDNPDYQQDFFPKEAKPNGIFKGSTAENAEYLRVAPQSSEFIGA
EGFR L858R, sequence (P00533 25-1210 L858R): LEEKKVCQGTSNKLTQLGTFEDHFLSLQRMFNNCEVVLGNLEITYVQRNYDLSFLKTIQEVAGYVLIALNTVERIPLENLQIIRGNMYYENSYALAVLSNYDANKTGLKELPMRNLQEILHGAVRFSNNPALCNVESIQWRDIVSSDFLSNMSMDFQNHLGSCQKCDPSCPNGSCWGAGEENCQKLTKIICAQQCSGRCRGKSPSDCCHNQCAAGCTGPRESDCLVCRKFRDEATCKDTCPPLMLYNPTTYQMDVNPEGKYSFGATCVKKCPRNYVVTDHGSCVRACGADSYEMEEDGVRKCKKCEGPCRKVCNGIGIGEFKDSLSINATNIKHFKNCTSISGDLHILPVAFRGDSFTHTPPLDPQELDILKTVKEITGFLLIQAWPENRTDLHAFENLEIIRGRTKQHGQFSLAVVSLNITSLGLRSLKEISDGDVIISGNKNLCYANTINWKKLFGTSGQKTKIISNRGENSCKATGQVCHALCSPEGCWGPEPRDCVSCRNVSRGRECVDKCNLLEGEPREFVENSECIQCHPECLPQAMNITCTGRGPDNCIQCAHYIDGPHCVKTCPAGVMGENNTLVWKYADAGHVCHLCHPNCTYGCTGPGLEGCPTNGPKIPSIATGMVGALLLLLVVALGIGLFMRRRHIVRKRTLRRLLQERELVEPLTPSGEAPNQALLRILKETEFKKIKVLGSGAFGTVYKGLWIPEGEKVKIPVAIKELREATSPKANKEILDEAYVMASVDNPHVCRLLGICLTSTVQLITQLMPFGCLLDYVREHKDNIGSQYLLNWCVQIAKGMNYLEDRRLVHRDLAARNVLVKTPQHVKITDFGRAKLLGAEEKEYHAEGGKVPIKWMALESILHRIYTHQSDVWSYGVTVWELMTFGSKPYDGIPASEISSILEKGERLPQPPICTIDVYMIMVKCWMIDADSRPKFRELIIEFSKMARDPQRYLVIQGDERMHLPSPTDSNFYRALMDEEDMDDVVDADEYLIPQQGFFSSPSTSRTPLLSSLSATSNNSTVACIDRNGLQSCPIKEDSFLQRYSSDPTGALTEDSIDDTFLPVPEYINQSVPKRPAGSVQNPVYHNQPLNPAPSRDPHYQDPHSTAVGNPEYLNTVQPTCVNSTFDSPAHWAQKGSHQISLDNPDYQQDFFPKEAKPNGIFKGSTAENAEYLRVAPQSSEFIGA

Turning to `CN1CCC(c2ccc(-c3ccc4c(c3)C(=O)N(C(C(=O)Nc3nccs3)c3cccc(F)c3)CO4)cc2)CC1` (stereo not drawn) [Compound 001, 2-(3-Fluorophenyl)-2-(6-(4-(1-methylpiperidin-4-yl)phenyl)-4-oxo-2H-benzo[e][1,3]oxazin-3 (4H)-yl)-N-(thiazol-2-yl)acetamide], the IC50 – broadly, the point on the concentration scale where inhibition reaches its midpoint – in test [1] is 1480 nM; in test [2], 510 nM; in test [3] it was 2.8 nM; in test [4], 0.4 nM.
For the compound `CN1CCN(c2ccc(-c3ccc4c(c3)C(=O)N(C(C(=O)Nc3nccs3)c3cccc(F)c3)CO4)cc2)CC1` (stereo not drawn) [Compound 002, 2-(3-Fluorophenyl)-2-(6-(4-(4-methylpiperazin-1-yl)phenyl)-4-oxo-2H-benzo[e][1,3]oxazin-3 (4H)-yl)-N-(thiazol-2-yl)acetamide], the IC50 in test [3] was 23 nM; in test [4], 4 nM.
Turning to `CN1CCC(c2ccc(-c3ccc4c(c3)C(=O)N(C(C(=O)Nc3nccs3)c3ccccc3)CO4)cc2)CC1` (stereo not drawn) [Compound 003, 2-(6-(4-(1-Methylpiperidin-4-yl)phenyl)-4-oxo-2H-benzo[e][1,3]oxazin-3(4H)-yl)-2-phenyl-N-(thiazol-2-yl)acetamide], the IC50 came to 1250 nM in test [1], 460 nM in test [2], 23 nM in test [3] and 0.8 nM in test [4].
Take `CN1CCC(c2ccc(-c3ccc4c(c3)OCN(C(C(=O)Nc3nccs3)c3ccccc3)C4=O)cc2)CC1` (stereo not drawn) [Compound 004, 2-(7-(4-(1-Methylpiperidin-4-yl)phenyl)-4-oxo-2H-benzo[e][1,3]oxazin-3(4H)-yl)-2-phenyl-N-(thiazol-2-yl)acetamide]: the IC50 is over 100 nM in test [3] and 21 nM in test [4].
Take `CN1CCC(c2ccc(-c3ccc4c(c3F)C(=O)N(C(C(=O)Nc3nccs3)c3ccccc3)CO4)cc2)CC1` (stereo not drawn) [Compound 005, 2-(5-Fluoro-6-(4-(1-methylpiperidin-4-yl)phenyl)-4-oxo-2H-benzo[e][1,3]oxazin-3(4H)-yl)-2-phenyl-N-(thiazol-2-yl)acetamide]: the IC50 came to 1040 nM in test [1], 460 nM in test [2], 3.7 nM in test [3] and 1 nM in test [4].
Turning to `CN1CCC(c2ccc(-c3ccc4c(c3)OCN(C(c3nc5ccccc5[nH]3)c3cc(F)ccc3O)C4=O)cc2)CC1` (stereo not drawn) [Compound 006, 3-((1H-Benzo[d]imidazol-2-yl) (5-fluoro-2-hydroxyphenyl)methyl)-7-(4-(1-methylpiperidin-4-yl)phenyl)-2,3-dihydro-4H-benzo[e][1,3]oxazin-4-one], the IC50 in test [1] amounted to 1540 nM; in test [2] it was 880 nM; in test [3], 3.6 nM; in test [4], 0.9 nM.
On to `CN1CCC(c2ccc(-c3ccc4c(c3)C(=O)N(C(c3nc5ccccc5[nH]3)c3cc(F)ccc3O)CO4)cc2)CC1` (stereo not drawn) [Compound 007, 3-((1H-Benzo[d]imidazol-2-yl) (5-fluoro-2-hydroxyphenyl)methyl)-6-(4-(1-methylpiperidin-4-yl)phenyl)-2,3-dihydro-4H-benzo[e][1,3]oxazin-4-one 2,2,2-trifluoroacetate], for which the IC50 in test [1] was found to be 470 nM; in test [2], 220 nM; in test [3], 1.9 nM; in test [4], 0.7 nM.
